# Tested on: mRNA expression in cardiovascular tissues
# Assay: Affymetrix GeneChip mRNA expression profiling of monkey tissues (iliac vein, pulmonary vein, aorta, carotid artery, heart) after two-week oral-gavage treatment
# Settings: iliac vein
# [1] = group average (Vioxx without A60055)
# [2] = group avg, Vioxx without A60055
compound,measurement,setting,value
"CS(=O)(=O)c1ccc(C2=C(c3ccccc3)C(=O)OC2)cc1 [Vioxx®, rofecoxib]","BCL6 (215990_s_at) mRNA expression, Avg fold changes vs control",[1],1.0 fold
same,"BTN2A2 (205298_s_at) mRNA expression, Avg fold changes vs control",[1],1.1 fold
same,"CCR1 (205098_at) mRNA expression, Avg fold changes vs control",[1],1.1 fold
same,"CD2 (205831_at) mRNA expression, Avg fold changes vs control",[1],1.1 fold
same,"CD48 (204118_at) mRNA expression, Avg fold changes vs control",[1],1.1 fold
same,"CD53 (203416_at) mRNA expression, Avg fold changes vs control",[1],1.2 fold
same,"CDC2 (210559_s_at) mRNA expression, Avg fold changes vs control",[1],1.0 fold
same,"CYBB (203922_s_at) mRNA expression, Avg fold changes vs control",[1],1.2 fold
same,"EMP3 (203729_at) mRNA expression, Avg fold changes vs control",[1],0.7 fold
same,"FCER1G (204232_at) mRNA expression, Avg fold changes vs control",[1],0.9 fold
same,"FCGR2A (203561_at) mRNA expression, Avg fold changes vs control",[1],1.1 fold
same,"FCGRT (218831_s_at) mRNA expression, Avg fold changes vs control",[1],1.0 fold
same,"FKBP11 (219117_s_at) mRNA expression, Avg fold changes vs control",[1],0.7 fold
same,"FKBP11 (219118_at) mRNA expression, Avg fold changes vs control",[1],0.6 fold
same,"GP6 (220336_s_at) mRNA expression, Avg fold changes vs control",[1],1.2 fold
same,"HCLS1 (202957_at) mRNA expression, Avg fold changes vs control",[1],1.2 fold
same,"HEM1 (209734_at) mRNA expression, Avg fold changes vs control",[1],1.2 fold
same,"HLA-A (210514_x_at) mRNA expression, Avg fold changes vs control",[1],1.2 fold
same,"HLA-A (213932_x_at) mRNA expression, Avg fold changes vs control",[1],1.2 fold
same,"HLA-C (211799_x_at) mRNA expression, Avg fold changes vs control",[1],1.0 fold
same,"HLA-E (200904_at) mRNA expression, Avg fold changes vs control",[1],1.1 fold
same,"HLA-F (221978_at) mRNA expression, Avg fold changes vs control",[1],1.3 fold
same,"ICAM1 (202637_s_at) mRNA expression, Avg fold changes vs control",[1],0.8 fold
same,"IL13RA1 (210904_s_at) mRNA expression, Avg fold changes vs control",[1],1.1 fold
same,"PIK3CD (203879_at) mRNA expression, Avg fold changes vs control",[1],1.1 fold
same,"PRKCBP1 (209048_s_at) mRNA expression, Avg fold changes vs control",[1],1.3 fold
same,"PRKCBP1 (209049_s_at) mRNA expression, Avg fold changes vs control",[1],1.0 fold
same,"PTPN7 (204852_s_at) mRNA expression, Avg fold changes vs control",[1],1.4 fold
same,"SIGIRR (52940_at) mRNA expression, Avg fold changes vs control",[1],1.1 fold
same,"STAT1 (200887_s_at) mRNA expression, Avg fold changes vs control",[1],1.2 fold
same,"STAT1 (AFFX-HUMISGF3A/M97935_3_at) mRNA expression, Avg fold changes vs control",[1],1.1 fold
same,"STAT3 (208992_s_at) mRNA expression, Avg fold changes vs control",[1],1.0 fold
same,"TCIRG1 (204158_s_at) mRNA expression, Avg fold changes vs control",[1],1.0 fold
same,"THY1 (213869_x_at) mRNA expression, Avg fold changes vs control",[1],0.8 fold
same,"TMPO (209753_s_at) mRNA expression, Avg fold changes vs control",[1],0.8 fold
same,"TMSB10 (217733_s_at) mRNA expression, Avg fold changes vs control",[1],1.1 fold
same,"TNFRSF21 (218856_at) mRNA expression, Avg fold changes vs control",[1],1.2 fold
same,"TRB@ (210915_x_at) mRNA expression, Avg fold changes vs control",[1],1.3 fold
same,"TRB@ (213193_x_at) mRNA expression, Avg fold changes vs control",[1],1.2 fold
same,209813_x_at avg fold change vs control,[2],0.4 fold
same,AIF1 (209901_x_at) avg fold change vs control,[2],0.3 fold
same,AIF1 (213095_x_at) avg fold change vs control,[2],0.6 fold
same,B2M (201891_s_at) avg fold change vs control,[2],1.4 fold
same,BCL3 (204908_s_at) avg fold change vs control,[2],0.7 fold
same,BTN3A1 (207485_x_at) avg fold change vs control,[2],2.0 fold
same,BTN3A3 (38241_at) avg fold change vs control,[2],14 fold
same,BTN3A3 (204820_s_at) avg fold change vs control,[2],1.6 fold
same,BTN3A3 (204821_at) avg fold change vs control,[2],1.7 fold
same,C1QA (218232_at) avg fold change vs control,[2],0.9 fold
same,C1QB (202953_at) avg fold change vs control,[2],1.0 fold
same,C1R (212067_s_at) avg fold change vs control,[2],0.9 fold
same,C1S (208747_s_at) avg fold change vs control,[2],1.3 fold
same,C2 (203052_at) avg fold change vs control,[2],0.9 fold
same,C4A (208451_s_at) avg fold change vs control,[2],1.1 fold
same,CASP1 (209970_x_at) avg fold change vs control,[2],1.1 fold
same,CASP1 (211367_s_at) avg fold change vs control,[2],1.4 fold
same,CCL2 (216598_s_at) avg fold change vs control,[2],1.0 fold
same,CCL3 (205114_s_at) avg fold change vs control,[2],1.4 fold
same,CCL5 (1405_i_at) avg fold change vs control,[2],0.5 fold
same,CCL8 (214038_at) avg fold change vs control,[2],1.8 fold
same,CCL18 (209924_at) avg fold change vs control,[2],0.7 fold
same,CCL19 (210072_at) avg fold change vs control,[2],1.2 fold
same,CCNB2 (202705_at) avg fold change vs control,[2],1.4 fold
same,CD3D (213539_at) avg fold change vs control,[2],2.0 fold
same,CD8A (205758_at) avg fold change vs control,[2],1.3 fold
same,CD14 (201743_at) avg fold change vs control,[2],0.8 fold
same,CD74 (209619_at) avg fold change vs control,[2],1.1 fold
same,CLU (208791_at) avg fold change vs control,[2],0.9 fold
same,CMAH (210571_s_at) avg fold change vs control,[2],1.0 fold
same,CTSC (201487_at) avg fold change vs control,[2],1.1 fold
same,CTSK (202450_s_at) avg fold change vs control,[2],1.3 fold
same,CTSS (202902_s_at) avg fold change vs control,[2],1.0 fold
same,CX3CR1 (205898_at) avg fold change vs control,[2],1.0 fold
same,CXCL9 (203915_at) avg fold change vs control,[2],1.6 fold
same,CXCL10 (204533_at) avg fold change vs control,[2],1.1 fold
same,CXCL11 (210163_at) avg fold change vs control,[2],1.5 fold
same,CXCL11 (211122_s_at) avg fold change vs control,[2],1.0 fold
same,CXCL12 (209687_at) avg fold change vs control,[2],1.0 fold
same,CYBA (203028_s_at) avg fold change vs control,[2],1.1 fold
same,CYBB (203923_s_at) avg fold change vs control,[2],0.9 fold
same,CYP1B1 (202436_s_at) avg fold change vs control,[2],1.0 fold
same,CYP3A5 (214234_s_at) avg fold change vs control,[2],0.9 fold
same,CYP11B1 (214630_at) avg fold change vs control,[2],0.8 fold
same,DUSP6 (208893_s_at) avg fold change vs control,[2],1.0 fold
same,ECGF1 (204858_s_at) avg fold change vs control,[2],1.9 fold
same,ECM1 (209365_s_at) avg fold change vs control,[2],1.3 fold
same,F2RL1 (206429_at) avg fold change vs control,[2],2.0 fold
same,F13A1 (203305_at) avg fold change vs control,[2],0.9 fold
same,FCGR1A (214511_x_at) avg fold change vs control,[2],0.6 fold
same,FCGR3A (204006_s_at) avg fold change vs control,[2],0.8 fold
same,G1P2 (205483_s_at) avg fold change vs control,[2],3.3 fold
same,GZMB (210164_at) avg fold change vs control,[2],1.6 fold
same,HCA127 (220040_x_at) avg fold change vs control,[2],0.6 fold
same,HCK (208018_s_at) avg fold change vs control,[2],1.2 fold
same,HFE (210864_x_at) avg fold change vs control,[2],1.2 fold
same,HFE (211329_x_at) avg fold change vs control,[2],0.9 fold
same,HFE (211332_x_at) avg fold change vs control,[2],1.0 fold
same,HFE (211863_x_at) avg fold change vs control,[2],0.8 fold

# Source: patent publication US9738932B2, “Biomarkers for cardiovascular side-effects induced by cox-2 inhibitory compounds” (FIRALIS SAS, priority 2005, dated 2017)
